# Reference: patent US10471059B2, “Compositions and methods of using tyrosine kinase inhibitors” (YALE UNIVERSITY, priority 2015, dated 2019)
# Entries after “also recorded” stand apart in the source; their conditions may differ.
# Key:
# Format in all cases: in vivo
# [1] = tested on: WT and Ptpn11^D61G/+ mice; experiment: Invasive hemodynamic study, postnatal dasatinib treatment
# Protocol: (§1) Vehicle-injected mice served as control.
# Hemodynamic Study—Anesthesia was induced by intraperitoneal injection of ketamine (100 mg/kg) and xylazine (5 mg/kg). The animal was placed on a warm pad and an incision was made on the neck. The right side carotid artery was exposed and a 1.9-French transducer-tipped catheter (Millar Inc., Houston, Tex.) was inserted into the artery, and then was advanced into left ventricle. Left ventricular pressures including high-fidelity positive, negative dp/dt and heart rate were measured under basal conditions. Data were recorded and analyzed by using LabChart software.
# [2] = tested on: c-Src and PZR tyrosyl phosphorylation in the heart of NS mice; experiment: Phosphorylation in heart tissue after i.p. dasatinib, immunoblot
# Protocol: Male Ptpn11D61G/+ mice were injected i.p. with dasatinib at the indicated dose or DMSO control, 24h later mice were sacrificed, heart tissue harvested and immunoblotted using the indicated antibodies.
# FIG. 13i is an image showing heart tissue immunoblotted with anti-Shp2, p-ERK1/2, ERK1/2, p-Src (Y416), Src, p-PZR (Y263) and PZR antibodies. […] Heart tissue was isolated after 18 hr and tissue lysates were immunoblotted.
# FIG. 18a is an image showing heart tissue immunoblotted with p-Raf1 (Y341), Raf1, p-MEK1/2, MEK1/2, p-INK, INK, p-p38, p38, p-Akt (S473) and Akt antibodies. Heart tissue was isolated after 18 hr and tissue lysates were immunoblotted.
# Immunoprecipitation and Immunoblotting—Cells or heart tissue were lysed on ice in lysis buffer (25 mM Tris-HCl, pH 7.4, 136 mM NaCl, 1 mM CaCl2, 1 mM MgCl2, 1% Nonidet P-40, 1 mM Na3VO4, 10 mM NaF, 1 mM benzamidine, 1 mM PMSF, 1 μg/ml pepstatin A, 5 μg/ml aprotinin, and 5 μg/ml leupeptin). Cell or tissue lysates were incubated at 4° C. for 30 min and clarified by centrifugation at 14,000 rpm at 4° C. for 10 min.
# [3] = tested on: WT and Ptpn11^D61G/+ mice; experiment: Echocardiography, postnatal dasatinib treatment; conditions: for % EF (ejection fraction) / % FS (fractional shortening) / IVS, d (Intraventricular septum wall thickness, diastole) / IVS, s (Intraventricular septum wall thickness, systole) / LV vol, d (left ventricle volume, diastole) / LV vol, s (left ventricle volume, systole) / LVID, d (left ventricular internal dimension, diastole) / LVID, s (left ventricular internal dimension, systole) / LVPW, d (left ventricular posterior wall thickness, diastole) / LVPW, s (left ventricular posterior wall thickness, systole): n = 6, Mean ± SEM
# Protocol: Dasatinib Treatment—N-(2-chloro-6-methylphenyl)-2-[[6-[4-(2-hydroxyethyl)-1-piperazinyl]-2-methyl-4-pyrimidinyl]amino]-5-thiazole carboxamide monohydrate (dasatinib, BMS-354825) was purchased from Biovision. dasatinib was dissolved in DMSO at a concentration of 10 mg/ml, then resuspended in vehicle (1× Dulbecco's PBS) at a concentration of 200 μg/ml. […] And then, injection was continued or discontinued for 2 weeks, Vehicle-injected mice served as control, Body weight was measured weekly and echocardiography was performed at P42 (6-weeks) and P56 (8-weeks).
# as §1
# [4] = Ptpn11D61G/+ mice, P56, n = 9, Mean ± SEM
# [5] = WT mice, P56, n = 8, Mean ± SEM
# [6] = postnatal 0.1 mg/kg/day i.p. P10 to P42, then discontinued 2 weeks, Ptpn11D61G/+ mice, P56
# [7] = postnatal 0.1 mg/kg/day i.p. P10 to P42, then discontinued 2 weeks, WT mice, P56
# [8] = postnatal 0.1 mg/kg/day i.p. from P10, Ptpn11D61G/+ mice, P42
smiles,measurement,setting,value
"Cc1nc(Nc2ncc(C(=O)Nc3c(C)cccc3Cl)s2)cc(N2CCN(CCO)CC2)n1.O [Dasatinib, N-(2-chloro-6-methylphenyl)-2-[[6-[4-(2-hydroxyethyl)-1-piperazinyl]-2-methyl-4-pyrimidinyl]amino]-5-thiazole carboxamide monohydrate]",aortic blood pressure and left ventricular pressure,"[1]; NS mice, P56",significantly restored
same,+dp/dt,[1]; [4],7718 ± 498 mmHg/s
same,Diastolic pressure,[1]; [4],84.0 ± 3.5 mmHg
same,End diastolic pressure,[1]; [4],11.1 ± 0.7 mmHg
same,Left ventricle pressure,[1]; [4],127.9 ± 4.5 mmHg
same,Mean arterial pressure,[1]; [4],96.8 ± 4.2 mmHg
same,Pulse pressure,[1]; [4],63.7 ± 4.4 mmHg
same,Systolic pressure,[1]; [4],129.3 ± 6.2 mmHg
same,−dp/dt,[1]; [4],−6189 ± 626 mmHg/s
same,+dp/dt,[1]; [5],8626 ± 476 mmHg/s
same,Diastolic pressure,[1]; [5],95.1 ± 4.2 mmHg
same,End diastolic pressure,[1]; [5],8.7 ± 1.3 mmHg
same,Left ventricle pressure,[1]; [5],136.5 ± 2.5 mmHg
same,Mean arterial pressure,[1]; [5],112.1 ± 4.0 mmHg
same,Pulse pressure,[1]; [5],65.2 ± 4.6 mmHg
same,Systolic pressure,[1]; [5],146.2 ± 5.1 mmHg
same,−dp/dt,[1]; [5],−6529 ± 847 mmHg/s
same,"ERK1/2, Raf-1, MEK1, p38 MAPK and JNK phosphorylation in the heart","[2]; 3-week-old NS mice, dasatinib 0.1-0.5 mg/kg i.p.","neither ERK1/2 phosphorylation (FIGS. 13i-13l), Raf-1, MEK1, p38 MAPK, nor JNK were affected"
same,dose sufficient to significantly inhibit both c-Src and PZR tyrosyl phosphorylation in the heart,"[2]; 3-week-old NS mice, i.p., heart isolated after 18 hr",0.5 mg/kg
same,fold lower dose than effective chemotherapeutic doses that can inhibit PZR tyrosyl phosphorylation in the heart,"[2]; NS mice, chemotherapeutic approx. 1.4-2.0 mg/kg/day",up to 250 fold
same,PZR tyrosyl phosphorylation in heart tissue,"[2]; male Ptpn11D61G/+ mice, i.p., 24 h",effective at reducing
same,fold lower than therapeutic dose,[3]; 0.1 mg/kg versus therapeutic dose,about 200 fold
same,dose sufficient to treat CHD-associated cardiac disease,[3]; mice,0.1 mg/kg
same,cardiac function after cessation of treatment,"[3]; postnatal 0.1 mg/kg/day P10 to P42, discontinued 2 weeks, NS mice, P56, monohydrate",preserved improvement of cardiac function; also recorded: continued preservation of cardiac function
same,cardiac function (EF and FS),"[3]; postnatal 0.1 mg/kg/day from P10, NS mice, P42, monohydrate",improves cardiac function; also recorded: complete corrective functionality; also recorded: completely restored cardiac functionality
same,% EF (ejection fraction),[3]; [6],64.71 ± 1.67 %
same,% FS (fractional shortening),[3]; [6],34.92 ± 1.23 %
same,"IVS, d (Intraventricular septum wall thickness, diastole)",[3]; [6],0.72 ± 0.04 mm
same,"IVS, s (Intraventricular septum wall thickness, systole)",[3]; [6],1.18 ± 0.05 mm
same,"LV vol, d (left ventricle volume, diastole)",[3]; [6],65.60 ± 2.44 mm^3
same,"LV vol, s (left ventricle volume, systole)",[3]; [6],24.85 ± 1.68^† mm^3
same,"LVID, d (left ventricular internal dimension, diastole)",[3]; [6],3.93 ± 0.08 mm
same,"LVID, s (left ventricular internal dimension, systole)",[3]; [6],2.60 ± 0.07 mm
same,"LVPW, d (left ventricular posterior wall thickness, diastole)",[3]; [6],0.65 ± 0.03 mm
same,"LVPW, s (left ventricular posterior wall thickness, systole)",[3]; [6],1.19 ± 0.05 mm
same,% EF (ejection fraction),[3]; [7],65.89 ± 1.74%
same,% FS (fractional shortening),[3]; [7],36.63 ± 1.20%
same,"IVS, d (Intraventricular septum wall thickness, diastole)",[3]; [7],0.69 ± 0.03 mm
same,"IVS, s (Intraventricular septum wall thickness, systole)",[3]; [7],1.19 ± 0.06 mm
same,"LV vol, d (left ventricle volume, diastole)",[3]; [7],64.06 ± 2.65 mm^3
same,"LV vol, s (left ventricle volume, systole)",[3]; [7],23.06 ± 2.21 mm^3
same,"LVID, d (left ventricular internal dimension, diastole)",[3]; [7],3.92 ± 0.09 mm
same,"LVID, s (left ventricular internal dimension, systole)",[3]; [7],2.52 ± 0.10 mm
same,"LVPW, d (left ventricular posterior wall thickness, diastole)",[3]; [7],0.80 ± 0.06 mm
same,"LVPW, s (left ventricular posterior wall thickness, systole)",[3]; [7],1.18 ± 0.05 mm
same,% EF (ejection fraction),[3]; [8],60.93 ± 2.06 %
same,% FS (fractional shortening),[3]; [8],33.08 ± 1.33 %
same,"IVS, d (Intraventricular septum wall thickness, diastole)",[3]; [8],0.66 ± 0.05 mm
same,"IVS, s (Intraventricular septum wall thickness, systole)",[3]; [8],1.04 ± 0.07 mm
same,"LV vol, d (left ventricle volume, diastole)",[3]; [8],57.35 ± 2.19 mm^3
same,"LV vol, s (left ventricle volume, systole)",[3]; [8],24.67 ± 1.18 mm^3
same,"LVID, d (left ventricular internal dimension, diastole)",[3]; [8],3.63 ± 0.07 mm
same,"LVID, s (left ventricular internal dimension, systole)",[3]; [8],2.50 ± 0.08 mm
same,"LVPW, d (left ventricular posterior wall thickness, diastole)",[3]; [8],0.71 ± 0.03 mm
same,"LVPW, s (left ventricular posterior wall thickness, systole)",[3]; [8],1.09 ± 0.06 mm
